Assay results taken from US8968780B2, “Stabilized pharmaceutical composition” (Egis Gyogyszergyar Nyilvanosan Muekoedoe Reszvenytarsasag, priority 2010, dated 2015).
Like-named read-outs stand apart in the source and are kept apart here.

How the values were obtained:
[1] = Preformulation stability of pregabalin with physically admixed non-reducing saccharides (appearance, scent); assay type: physicochemical

## CC(C)CC(CN)CC(=O)O (stereo not drawn) [Pregabalin, 5-methyl-3-aminomethyl-hexanoic acid]
40° C./75% RH/4 Weeks/open
  % Known Impurities Lactum RRT = 3.91: 0.004%
60° C./2 Weeks/closed
  % Known Impurities Lactum RRT = 3.91: 0.006%
Initial
  % Known Impurities Lactum RRT = 3.91: <0.0003%
[1]; 40° C./75% RH/4 Weeks/open
  Scent: Odourless
[1]; 50° C./4 Weeks/closed
  Scent: Odourless
[1]; Initial
  Scent: Odourless
